What was measured:
[1] = biological target: botulinum neurotoxin (BoNT/A) (Clostridium botulinum, UniProt P0DPI0); set-up: key to BoNT neutralization effects of tea-leaf extract ingredients: Effect: +: Effective in neutralization; −: Ineffective in neutralization
mouse = details: in vivo, po

Sequence of botulinum neurotoxin (BoNT/A) (P0DPI0 whole entry, looked up): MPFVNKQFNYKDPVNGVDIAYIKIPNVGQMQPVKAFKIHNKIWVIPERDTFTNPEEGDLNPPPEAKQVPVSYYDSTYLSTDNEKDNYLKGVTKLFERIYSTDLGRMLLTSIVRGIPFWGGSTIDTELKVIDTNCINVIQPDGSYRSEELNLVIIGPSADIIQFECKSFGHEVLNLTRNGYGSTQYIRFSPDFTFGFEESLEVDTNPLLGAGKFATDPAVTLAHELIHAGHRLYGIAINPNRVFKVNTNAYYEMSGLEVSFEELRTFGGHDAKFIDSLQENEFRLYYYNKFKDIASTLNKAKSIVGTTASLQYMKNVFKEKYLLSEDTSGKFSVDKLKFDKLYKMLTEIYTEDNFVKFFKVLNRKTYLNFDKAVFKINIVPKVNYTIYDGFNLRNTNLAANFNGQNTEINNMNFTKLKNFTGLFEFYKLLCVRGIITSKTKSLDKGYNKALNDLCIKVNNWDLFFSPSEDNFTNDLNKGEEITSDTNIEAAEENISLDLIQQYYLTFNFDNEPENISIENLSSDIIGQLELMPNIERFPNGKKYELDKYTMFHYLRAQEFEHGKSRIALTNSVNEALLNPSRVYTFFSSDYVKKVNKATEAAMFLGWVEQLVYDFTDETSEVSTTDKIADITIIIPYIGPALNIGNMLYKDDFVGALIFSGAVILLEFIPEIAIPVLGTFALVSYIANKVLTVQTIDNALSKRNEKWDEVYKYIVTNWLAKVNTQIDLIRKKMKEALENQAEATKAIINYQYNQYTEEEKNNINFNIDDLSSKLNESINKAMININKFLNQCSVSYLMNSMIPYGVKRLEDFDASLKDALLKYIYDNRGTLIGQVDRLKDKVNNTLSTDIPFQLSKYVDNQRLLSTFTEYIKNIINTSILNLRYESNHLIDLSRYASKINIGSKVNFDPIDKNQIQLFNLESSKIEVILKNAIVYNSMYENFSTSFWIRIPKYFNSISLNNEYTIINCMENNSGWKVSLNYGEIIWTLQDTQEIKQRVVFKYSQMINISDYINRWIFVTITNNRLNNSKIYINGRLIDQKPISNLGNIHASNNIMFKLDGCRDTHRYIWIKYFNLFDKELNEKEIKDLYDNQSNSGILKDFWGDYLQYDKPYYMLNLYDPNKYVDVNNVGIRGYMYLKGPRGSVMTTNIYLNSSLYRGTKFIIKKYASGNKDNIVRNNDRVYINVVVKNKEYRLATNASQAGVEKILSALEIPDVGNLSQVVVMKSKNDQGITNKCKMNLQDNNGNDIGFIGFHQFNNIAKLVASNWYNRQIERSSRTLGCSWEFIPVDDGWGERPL

Compound | BoNT neutralization effects of tea-leaf extract ingredients: Effect [1] | BoNT neutralizing effect (in words) [1] | toxicity (in words) (mouse)
O=C(OC[C@H]1O[C@@H](OC(=O)c2cc(O)c(O)c(OC(=O)c3cc(O)c(O)c(O)c3)c2)[C@H](OC(=O)c2cc(O)c(O)c(OC(=O)c3cc(O)c(O)c(O)c3)c2)[C@@H](OC(=O)c2cc(O)c(O)c(OC(=O)c3cc(O)c(O)c(O)c3)c2)[C@@H]1OC(=O)c1cc(O)c(O)c(OC(=O)c2cc(O)c(O)c(O)c2)c1)c1cc(O)c(O)c(OC(=O)c2cc(O)c(O)c(O)c2)c1 [Tannic Acid, tannic acid] | − | showed no neutralizing effect | 
O=c1c(O)cc([C@H]2Oc3cc(O)cc(O)c3C[C@H]2O)cc2c([C@H]3Oc4cc(O)cc(O)c4C[C@H]3O)cc(O)c(O)c12 [Theaflavin, theaflavin] | − | showed no neutralizing effect | 
catechin | − | showed no neutralizing effect | 
thearubigin |  |  | no toxicity
